Targets include Adenosine receptor A2a (Homo sapiens, UniProt P29274); Histamine H1 receptor (Homo sapiens, UniProt P35367); Motilin receptor (Homo sapiens, UniProt O43193).
The next experiment concerns the target T1, B2 bradykinin receptor (Homo sapiens, UniProt P30411).
T1 sequence (P30411 whole entry): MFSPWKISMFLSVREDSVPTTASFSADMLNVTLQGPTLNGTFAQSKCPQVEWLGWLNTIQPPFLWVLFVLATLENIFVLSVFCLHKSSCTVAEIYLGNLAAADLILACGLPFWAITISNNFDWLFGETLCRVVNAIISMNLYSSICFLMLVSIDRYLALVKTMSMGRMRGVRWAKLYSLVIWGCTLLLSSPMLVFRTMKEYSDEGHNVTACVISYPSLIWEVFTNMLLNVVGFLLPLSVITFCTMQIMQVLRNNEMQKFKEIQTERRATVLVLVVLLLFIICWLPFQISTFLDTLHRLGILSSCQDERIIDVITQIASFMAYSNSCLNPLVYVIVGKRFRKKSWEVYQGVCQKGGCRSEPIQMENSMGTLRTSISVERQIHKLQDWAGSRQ

The target of experiment [1] is Kappa-type opioid receptor (Homo sapiens, UniProt P41145).
Kappa-type opioid receptor, sequence (P41145 whole entry): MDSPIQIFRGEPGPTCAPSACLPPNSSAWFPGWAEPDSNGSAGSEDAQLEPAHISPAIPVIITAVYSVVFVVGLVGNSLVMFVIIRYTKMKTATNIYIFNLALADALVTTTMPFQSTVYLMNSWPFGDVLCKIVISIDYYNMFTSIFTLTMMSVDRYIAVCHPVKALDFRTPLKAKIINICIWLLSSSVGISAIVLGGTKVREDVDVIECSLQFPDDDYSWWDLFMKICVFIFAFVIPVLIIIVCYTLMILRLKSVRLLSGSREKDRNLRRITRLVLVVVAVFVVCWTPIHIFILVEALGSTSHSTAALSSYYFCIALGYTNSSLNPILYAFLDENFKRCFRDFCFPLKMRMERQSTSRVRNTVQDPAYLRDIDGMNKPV
Experiment [2] has as its target Beta-2 adrenergic receptor (Homo sapiens, UniProt P07550).
Experiment [3] concerns the target T2, Gamma-aminobutyric acid receptor subunit alpha-1 (Rattus norvegicus, UniProt P62813).
Experiment [4] addresses T3, Alpha-2B adrenergic receptor (Homo sapiens, UniProt P18089).
T3 sequence (P18089 whole entry): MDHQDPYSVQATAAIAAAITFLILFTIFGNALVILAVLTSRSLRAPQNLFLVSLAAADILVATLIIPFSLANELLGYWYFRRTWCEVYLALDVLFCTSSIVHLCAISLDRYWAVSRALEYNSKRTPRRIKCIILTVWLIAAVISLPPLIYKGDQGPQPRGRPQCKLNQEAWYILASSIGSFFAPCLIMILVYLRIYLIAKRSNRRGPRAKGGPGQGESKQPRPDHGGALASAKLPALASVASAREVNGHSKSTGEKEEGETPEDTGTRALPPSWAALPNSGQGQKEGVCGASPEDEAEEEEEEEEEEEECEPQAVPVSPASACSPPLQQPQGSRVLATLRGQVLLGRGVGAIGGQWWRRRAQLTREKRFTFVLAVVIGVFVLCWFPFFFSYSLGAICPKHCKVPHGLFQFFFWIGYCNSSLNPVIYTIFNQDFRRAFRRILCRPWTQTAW

A further experiment deals with T4, Adenosine receptor A3 (Homo sapiens, UniProt P0DMS8).
T4 sequence (P0DMS8 whole entry): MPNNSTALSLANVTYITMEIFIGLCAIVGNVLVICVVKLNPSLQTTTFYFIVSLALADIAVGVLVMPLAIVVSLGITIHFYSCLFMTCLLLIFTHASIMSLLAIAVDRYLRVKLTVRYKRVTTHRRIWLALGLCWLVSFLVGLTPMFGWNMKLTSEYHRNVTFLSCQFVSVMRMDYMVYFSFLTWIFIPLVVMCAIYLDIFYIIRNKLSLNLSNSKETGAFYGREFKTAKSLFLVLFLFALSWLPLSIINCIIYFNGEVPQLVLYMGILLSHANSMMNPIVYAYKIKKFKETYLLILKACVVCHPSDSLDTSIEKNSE

In experiment [5] the target is T5, 5-hydroxytryptamine receptor 2C (Homo sapiens, UniProt P28335).
T5 sequence (P28335 whole entry): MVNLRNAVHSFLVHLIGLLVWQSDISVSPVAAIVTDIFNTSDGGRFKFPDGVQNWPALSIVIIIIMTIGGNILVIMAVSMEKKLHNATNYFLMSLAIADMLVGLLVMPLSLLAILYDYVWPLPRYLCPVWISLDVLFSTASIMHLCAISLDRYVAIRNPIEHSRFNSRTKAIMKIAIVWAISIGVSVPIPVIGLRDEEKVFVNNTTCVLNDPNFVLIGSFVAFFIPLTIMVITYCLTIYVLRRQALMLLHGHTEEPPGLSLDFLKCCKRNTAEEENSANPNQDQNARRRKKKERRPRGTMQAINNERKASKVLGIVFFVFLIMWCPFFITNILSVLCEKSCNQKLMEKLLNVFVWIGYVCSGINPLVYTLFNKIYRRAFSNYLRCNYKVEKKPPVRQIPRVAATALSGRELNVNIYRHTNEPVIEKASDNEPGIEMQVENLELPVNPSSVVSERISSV

Experiment [6] deals with T2, Gamma-aminobutyric acid receptor subunit alpha-1. In kind it is functional.
For experiment [7], the target named is Neuronal acetylcholine receptor subunit alpha-4 (Homo sapiens, UniProt P43681).
Neuronal acetylcholine receptor subunit alpha-4, sequence (P43681 whole entry): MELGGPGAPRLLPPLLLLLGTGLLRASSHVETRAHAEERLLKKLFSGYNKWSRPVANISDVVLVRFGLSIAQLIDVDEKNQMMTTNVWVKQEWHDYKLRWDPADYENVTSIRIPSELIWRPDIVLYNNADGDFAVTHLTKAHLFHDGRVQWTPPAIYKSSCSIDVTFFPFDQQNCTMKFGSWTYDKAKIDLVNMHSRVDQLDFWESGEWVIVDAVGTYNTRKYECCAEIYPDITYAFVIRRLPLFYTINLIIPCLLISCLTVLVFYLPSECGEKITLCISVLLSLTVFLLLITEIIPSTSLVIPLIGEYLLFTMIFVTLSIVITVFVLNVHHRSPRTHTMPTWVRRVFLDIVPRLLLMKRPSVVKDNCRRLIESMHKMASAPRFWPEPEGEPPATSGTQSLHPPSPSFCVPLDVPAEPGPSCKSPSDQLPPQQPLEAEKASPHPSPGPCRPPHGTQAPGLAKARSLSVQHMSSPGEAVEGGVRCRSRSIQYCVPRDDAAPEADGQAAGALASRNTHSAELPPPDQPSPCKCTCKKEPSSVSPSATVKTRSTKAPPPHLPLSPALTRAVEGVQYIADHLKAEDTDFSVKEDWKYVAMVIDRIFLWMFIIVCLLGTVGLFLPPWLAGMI
Experiment [8] concerns the target T6, Alpha-2C adrenergic receptor (Homo sapiens, UniProt P18825).
T6 sequence (P18825 whole entry): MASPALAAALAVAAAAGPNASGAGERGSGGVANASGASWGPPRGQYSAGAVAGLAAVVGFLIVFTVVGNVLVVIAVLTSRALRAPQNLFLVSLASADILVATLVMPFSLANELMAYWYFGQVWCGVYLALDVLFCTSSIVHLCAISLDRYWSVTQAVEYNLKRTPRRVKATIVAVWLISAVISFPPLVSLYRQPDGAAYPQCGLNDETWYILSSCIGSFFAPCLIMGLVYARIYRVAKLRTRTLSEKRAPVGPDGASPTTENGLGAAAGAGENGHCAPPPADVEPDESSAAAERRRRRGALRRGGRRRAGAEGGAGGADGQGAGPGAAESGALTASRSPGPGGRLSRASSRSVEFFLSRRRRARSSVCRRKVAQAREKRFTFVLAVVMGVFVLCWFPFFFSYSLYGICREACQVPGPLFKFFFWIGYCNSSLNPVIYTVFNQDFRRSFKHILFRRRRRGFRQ
In kind it is functional.

Experiment [9] deals with T7, Type-1 angiotensin II receptor (Homo sapiens, UniProt P30556).
T7 sequence (P30556 whole entry): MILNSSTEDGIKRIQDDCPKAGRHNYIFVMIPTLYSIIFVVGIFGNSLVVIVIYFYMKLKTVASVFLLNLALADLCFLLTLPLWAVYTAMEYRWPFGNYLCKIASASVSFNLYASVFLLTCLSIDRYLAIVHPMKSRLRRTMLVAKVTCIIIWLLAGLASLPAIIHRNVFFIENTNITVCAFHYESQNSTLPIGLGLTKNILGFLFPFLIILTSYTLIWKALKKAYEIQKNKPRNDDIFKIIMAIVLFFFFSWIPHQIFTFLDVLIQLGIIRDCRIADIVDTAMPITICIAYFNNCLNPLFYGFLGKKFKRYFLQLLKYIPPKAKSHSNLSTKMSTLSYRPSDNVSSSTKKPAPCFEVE

In general, AC50 refers to the midpoint of the concentration-response curve, whichever way the signal moves. Read a low AC50 as greater potency.
Also: assay procedure not described here.

Beta-2 adrenergic receptor, sequence (P07550 whole entry): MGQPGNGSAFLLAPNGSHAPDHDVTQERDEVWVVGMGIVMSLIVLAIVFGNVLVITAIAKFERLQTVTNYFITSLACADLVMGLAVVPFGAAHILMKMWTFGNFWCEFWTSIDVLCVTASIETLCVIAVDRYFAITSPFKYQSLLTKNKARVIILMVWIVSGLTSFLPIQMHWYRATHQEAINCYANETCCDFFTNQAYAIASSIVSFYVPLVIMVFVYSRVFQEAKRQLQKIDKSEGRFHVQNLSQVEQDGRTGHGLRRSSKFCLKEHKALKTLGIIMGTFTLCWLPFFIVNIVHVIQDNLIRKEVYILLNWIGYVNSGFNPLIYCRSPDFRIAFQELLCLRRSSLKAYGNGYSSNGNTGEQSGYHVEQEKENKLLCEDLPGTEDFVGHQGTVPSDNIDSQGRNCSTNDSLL
Motilin receptor, sequence (O43193 whole entry): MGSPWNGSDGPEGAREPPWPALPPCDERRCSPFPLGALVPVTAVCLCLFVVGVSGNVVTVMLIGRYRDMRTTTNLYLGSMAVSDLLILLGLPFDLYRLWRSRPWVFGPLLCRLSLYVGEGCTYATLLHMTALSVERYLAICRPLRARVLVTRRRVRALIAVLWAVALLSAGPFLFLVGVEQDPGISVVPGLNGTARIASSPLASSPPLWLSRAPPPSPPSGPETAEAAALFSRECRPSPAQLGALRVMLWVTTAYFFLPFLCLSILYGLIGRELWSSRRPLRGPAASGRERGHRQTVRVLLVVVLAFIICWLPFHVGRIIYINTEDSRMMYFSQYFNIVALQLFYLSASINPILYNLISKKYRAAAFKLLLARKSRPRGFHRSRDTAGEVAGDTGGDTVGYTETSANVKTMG
T2 sequence (P62813 whole entry): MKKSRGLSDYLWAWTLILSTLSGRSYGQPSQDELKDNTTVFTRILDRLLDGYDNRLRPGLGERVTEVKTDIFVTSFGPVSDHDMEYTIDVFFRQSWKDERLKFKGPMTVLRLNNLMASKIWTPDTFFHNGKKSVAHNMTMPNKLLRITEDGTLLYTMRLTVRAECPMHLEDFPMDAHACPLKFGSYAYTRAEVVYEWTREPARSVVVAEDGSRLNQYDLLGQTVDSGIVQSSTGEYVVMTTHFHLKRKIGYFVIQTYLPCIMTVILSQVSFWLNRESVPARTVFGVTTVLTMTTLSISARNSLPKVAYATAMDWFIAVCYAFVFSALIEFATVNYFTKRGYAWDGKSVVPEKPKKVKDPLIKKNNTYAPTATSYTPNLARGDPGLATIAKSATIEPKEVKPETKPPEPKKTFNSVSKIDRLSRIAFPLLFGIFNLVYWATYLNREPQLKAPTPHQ
Histamine H1 receptor, sequence (P35367 whole entry): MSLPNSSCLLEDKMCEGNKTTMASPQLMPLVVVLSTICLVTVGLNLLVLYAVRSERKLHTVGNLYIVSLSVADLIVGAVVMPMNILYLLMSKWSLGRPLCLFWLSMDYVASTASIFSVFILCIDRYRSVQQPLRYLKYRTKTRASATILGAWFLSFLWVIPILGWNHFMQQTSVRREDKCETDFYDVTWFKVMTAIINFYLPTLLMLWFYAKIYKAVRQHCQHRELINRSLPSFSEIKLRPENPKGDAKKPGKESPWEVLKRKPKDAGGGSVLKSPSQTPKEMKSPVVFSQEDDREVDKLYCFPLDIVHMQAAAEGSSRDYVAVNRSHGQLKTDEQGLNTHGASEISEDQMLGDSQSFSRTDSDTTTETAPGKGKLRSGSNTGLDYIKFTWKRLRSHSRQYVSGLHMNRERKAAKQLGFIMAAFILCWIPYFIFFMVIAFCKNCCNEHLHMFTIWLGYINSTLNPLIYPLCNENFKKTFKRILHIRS
Adenosine receptor A2a, sequence (P29274 whole entry): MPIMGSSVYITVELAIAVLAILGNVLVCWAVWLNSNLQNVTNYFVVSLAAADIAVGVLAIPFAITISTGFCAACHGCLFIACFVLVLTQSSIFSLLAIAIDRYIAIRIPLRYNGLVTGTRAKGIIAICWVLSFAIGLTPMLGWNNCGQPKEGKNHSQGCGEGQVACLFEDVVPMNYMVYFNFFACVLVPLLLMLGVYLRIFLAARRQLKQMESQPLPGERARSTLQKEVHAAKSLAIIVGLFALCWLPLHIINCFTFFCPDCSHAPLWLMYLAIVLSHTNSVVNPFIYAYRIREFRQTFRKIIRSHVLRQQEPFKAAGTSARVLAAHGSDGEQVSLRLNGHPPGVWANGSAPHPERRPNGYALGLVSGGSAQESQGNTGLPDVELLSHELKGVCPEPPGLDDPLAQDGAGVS

`COc1cc2c(cc1OC)C(CCc1ccc(Cl)cc1)N(C)CC2` (stereo unspecified) [METHOPHOLINE]: the concentration at half-maximal activity (AC50) at B2 bradykinin receptor is more than 30 µM; in experiment [1], 1.2 µM; in experiment [2], more than 30 µM; in [3], more than 10 µM; in [4], more than 10 µM; on Adenosine receptor A2a, more than 30 µM. Further, the AC50 at Adenosine receptor A3 is more than 30 µM; in experiment [5] it was more than 30 µM; in experiment [6] it was more than 10 µM; in [7], more than 30 µM; at Histamine H1 receptor, more than 10 µM; at Motilin receptor, more than 30 µM. Moreover, the half-maximal activity concentration (AC50) in experiment [8] is more than 10 µM; in experiment [9] it was more than 30 µM.
As to `C[N@+]1(CCF)[C@@H]2CC[C@H]1C[C@@H](OC(=O)C(O)(c1ccccc1)c1ccccc1)C2`, the AC50 on B2 bradykinin receptor was more than 30 µM; in experiment [1] it was 26 µM; in [2], more than 30 µM; in [3], more than 30 µM; in [4] it was more than 30 µM; on Adenosine receptor A2a it was more than 30 µM. For the same molecule, the concentration at half-maximal activity (AC50) on Adenosine receptor A3 is more than 30 µM; in experiment [5] it was more than 30 µM; in experiment [6], more than 30 µM; in [7], more than 30 µM; on Histamine H1 receptor, 15 µM; on Motilin receptor, more than 30 µM. Moreover, the concentration at half-maximal activity (AC50) in experiment [8] and in [9] was more than 30 µM throughout.
`C=C[C@@]1(C)CC(=O)[C@]2(O)[C@@]3(C)[C@@H](O)CCC(C)(C)[C@@H]3[C@H](O)[C@H](OC(C)=O)[C@@]2(C)O1` [COLFORSIN]: the AC50 (on B2 bradykinin receptor; in experiment [1]; in experiment [2]; in experiment [3]; in experiment [4]; on Adenosine receptor A2a) was more than 30 µM each time. The AC50 (at Adenosine receptor A3; in [5]; in experiment [6]; in experiment [7]; at Histamine H1 receptor; at Motilin receptor) was more than 30 µM throughout. Further, the AC50 in experiment [8] and in experiment [9] was more than 30 µM in each case.
For `CCC(COC(=O)c1cc(OC)c(OC)c(OC)c1)(c1ccccc1)N(C)C` (stereo unspecified) [TRIMEBUTINE], the concentration at half-maximal activity (AC50) on B2 bradykinin receptor was more than 30 µM; in experiment [1], 0.19 µM; in experiment [2] it was more than 30 µM; in experiment [3], more than 30 µM; in experiment [4], 17 µM; at Adenosine receptor A2a, more than 30 µM. In addition, the AC50 at Adenosine receptor A3 was 30 µM; in experiment [5] it was more than 30 µM; in experiment [6] it was more than 30 µM; in experiment [7] it was 15 µM; on Histamine H1 receptor it was more than 30 µM; at Motilin receptor, more than 30 µM. Moreover, the AC50 in [8] and in experiment [9] was more than 30 µM each time.
Turning to `CCCCCCCCCCCCCCCCCCCCCC(=O)Nc1ccn([C@@H]2O[C@H](CO)[C@@H](O)[C@@H]2O)c(=O)n1` [ENOCITABINE], the AC50 (on B2 bradykinin receptor; in experiment [1]; in experiment [2]; in experiment [3]; in experiment [4]; on Adenosine receptor A2a) was more than 30 µM throughout. For the same molecule, the AC50 (at Adenosine receptor A3; in experiment [6]; in experiment [7]; at Histamine H1 receptor; on Motilin receptor; in [8]) was more than 30 µM each time. The molecule further showed an AC50 in [9] of more than 30 µM.
`OCc1cc(C(O)CNCCCCCCOCCCCc2ccccc2)ccc1O` (stereo unspecified) [SALMETEROL]: the AC50 is more than 30 µM at B2 bradykinin receptor; 11 µM in experiment [1]; more than 10 µM in experiment [3]; 13 µM in [4]; more than 30 µM on Adenosine receptor A2a; more than 30 µM at Adenosine receptor A3. Further, the AC50 was more than 30 µM in experiment [5]; more than 10 µM in [6]; more than 10 µM in [7]; more than 10 µM at Histamine H1 receptor; more than 10 µM at Motilin receptor; more than 10 µM in experiment [8]. The AC50 in [9] is more than 30 µM.
In the case of `Cc1ncc2n1-c1ccc(Cl)cc1C(c1ccccc1F)=NC2` [MIDAZOLAM], the half-maximal activity concentration (AC50) on B2 bradykinin receptor was more than 30 µM; in experiment [2], more than 10 µM; in experiment [3] it was more than 10 µM; in experiment [4], more than 10 µM; at Adenosine receptor A2a, more than 30 µM; on Adenosine receptor A3 it was more than 30 µM. The AC50 in experiment [5] was more than 30 µM; in experiment [6], 0.0025 µM; in experiment [7] it was more than 10 µM; on Histamine H1 receptor it was more than 10 µM; at Motilin receptor, more than 10 µM; in experiment [8], more than 10 µM. The concentration at half-maximal activity (AC50) in experiment [9] was more than 30 µM.
As for `C#CCOc1ccc(N)cc1C(=O)NCCCC` [PARSALMIDE], the AC50 (on B2 bradykinin receptor; in experiment [1]; in experiment [3]; in experiment [4]; at Adenosine receptor A2a; at Adenosine receptor A3) was more than 30 µM each time. In addition, the half-maximal activity concentration (AC50) (in [5]; in experiment [6]; in experiment [7]; at Histamine H1 receptor; at Motilin receptor; in experiment [8]) was more than 30 µM throughout. In [9], this molecule gave a concentration at half-maximal activity (AC50) of more than 30 µM.
Turning to `Cn1c(=O)cc(N2CCC[C@@H](N)C2)n(Cc2ccccc2C#N)c1=O` [ALOGLIPTIN], the concentration at half-maximal activity (AC50) at B2 bradykinin receptor is more than 30 µM; in experiment [1] it was 8.32 µM; in experiment [2] it was more than 10 µM; in [4], more than 10 µM; at Adenosine receptor A2a, more than 30 µM; at Adenosine receptor A3, more than 30 µM. Besides, the AC50 was more than 30 µM in experiment [5]; more than 10 µM in experiment [6]; more than 10 µM in experiment [7]; more than 10 µM on Histamine H1 receptor; more than 10 µM at Motilin receptor; more than 10 µM in experiment [8]. This molecule also showed an AC50 in [9] of more than 30 µM.
